Measurements: US7531545B2, “2-amino-3,4-dihydro-pyrido[3,4-d]pyrimidine derivatives useful as inhibitors of β-secretase (BACE)” (Janssen Pharmaceutica, N.V., priority 2005, dated 2009)

Molecular target: human BACE-1 (Homo sapiens, UniProt P56817)
Experiment: CEREP BACE Inhibition Assay
Type: biochemical
Details: recombinant enzyme; for inhibition at 0.3 µM / inhibition at 1 µM: percent inhibition of the control activity; for IC50: read-out: IC50; for inhibition at 1 µM: read-out: % Inhibition @ 1.0 μM
Description: More specifically the assay, run at 50 μL in a 96 well plate, evaluated the effect of test compound on the activity of the human BACE-1 quantified by measuring the formation of Mca-S-E-V-N-L-NH2 from […], using a recombinant enzyme. The test compound, reference compound or water (control) were added to a buffer containing 0.09 M sodium acetate (pH 4.5) and 0.25 μg BACE-1. Compound interference with the fluorimetric detection method due to autofluorescence was then checked by measurements at the wavelengths defined to evaluate the enzyme activity. […] For control basal measurement, the substrate was omitted from the reaction mixture. […] The standard inhibitory reference compound was OM99-2, which was tested in each experiment at several concentrations to obtain an inhibition curve from which its IC50 value was calculated.

Sequence of human BACE-1 (P56817 46-501): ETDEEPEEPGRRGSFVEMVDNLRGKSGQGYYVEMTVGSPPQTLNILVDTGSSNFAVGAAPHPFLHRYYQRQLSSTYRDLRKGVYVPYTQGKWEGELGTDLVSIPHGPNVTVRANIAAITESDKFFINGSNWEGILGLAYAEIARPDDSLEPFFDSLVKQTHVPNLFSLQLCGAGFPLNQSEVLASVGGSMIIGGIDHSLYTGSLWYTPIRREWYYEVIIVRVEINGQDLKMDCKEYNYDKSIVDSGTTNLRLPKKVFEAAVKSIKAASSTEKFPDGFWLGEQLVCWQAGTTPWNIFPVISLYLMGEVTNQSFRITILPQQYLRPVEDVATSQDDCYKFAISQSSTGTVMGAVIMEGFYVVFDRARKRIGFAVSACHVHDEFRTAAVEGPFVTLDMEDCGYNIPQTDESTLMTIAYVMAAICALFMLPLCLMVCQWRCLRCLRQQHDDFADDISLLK

Compound	inhibition at 0.3 µM [%]	IC50 [µM]	inhibition at 1 µM [%]
NC1=Nc2cnc(Oc3ccccc3)cc2CN1[C@@H](CCC(=O)N(Cc1nnc[nH]1)C1CCCCC1)C1CCCCC1 [Compound 80, 4-(2-Amino-6-phenoxy-4H-pyrido[3,4-d]pyrimidin-3-yl)-4-(S),N-dicyclohexyl-N-(4H-[1,2,4]triazol-3-ylmethyl)-butyramide]	97	0.17	
NC1=Nc2cnc(Oc3ccccc3)cc2CN1[C@@H](CCC(=O)N1CCCC[C@H]1C(=O)O)C1CCCCC1 [Compound 91]	70	0.34	
CC(C)[C@H](CCC(=O)N[C@@H](COC(C)(C)C)c1nnnn1Cc1ccccc1)N1Cc2cc(Oc3ccccc3)ncc2N=C1N [Compound 95]	86	0.21	
CC(C)[C@H](CCC(=O)N[C@@H](COC(C)(C)C)c1nnn[nH]1)N1Cc2cc(Oc3ccccc3)ncc2N=C1N [Compound 97, 4-(2-Amino-6-phenoxy-4H-pyrido[3,4-d]pyrimidin-3-yl)-5-methyl-(S)-hexanoic acid [2-(R)-tert-butoxy-1-(1H-tetrazol-5-yl)-ethyl]-amide]	96	0.11	
CC(C)[C@H](CCC(=O)N[C@H](COC(C)(C)C)C(=O)N1CCCCC1)N1Cc2cc(Oc3ccccc3)ncc2N=C1N [Compound 98]	72	0.15	
CC(C)[C@H](CCC(=O)N[C@@H](COC(C)(C)C)CN1CCCCC1)N1Cc2cc(Oc3ccccc3)ncc2N=C1N [Compound 101]	43	0.32	
CC(C)(C)OC[C@H](CN1CCOCC1)NC(=O)CC[C@@H](C1CCCCC1)N1Cc2cc(Oc3ccccc3)ncc2N=C1N [Compound 102, 4-(2-Amino-6-phenoxy-4H-pyrido[3,4-d]pyrimidin-3-yl)-N-(2-(R)-tert-butoxy-1-morpholin-4-ylmethyl-ethyl)-4-(S)-cyclohexyl-butyramide]	55	0.46	
CC(C)(C)OC[C@@H](NC(=O)CC[C@@H](C1CCCCC1)N1Cc2cc(Oc3ccccc3)ncc2N=C1N)C(=O)N1CCOCC1 [Compound 103, 4-(2-Amino-6-phenoxy-4H-pyrido[3,4-d]pyrimidin-3-yl)-N-(1-(R)-tert-butoxymethyl-2-morpholin-4-yl-2-oxo-ethyl)-4-(S)-cyclohexyl-butyramide]	96	0.082	
CC(C)(C)OC[C@H](CO)NC(=O)CC[C@@H](C1CCCCC1)N1Cc2cc(Oc3ccccc3)ccc2N=C1N [Compound 107, 4-(2-Amino-6-phenoxy-4H-quinazolin-3-yl)-N-(1-(S)-tert-butoxymethyl-2-hydroxy-ethyl)-4-(S)-cyclohexyl-butyramide]	87		
C[C@@H](CO)NC(=O)[C@@H](COC(C)(C)C)NC(=O)CC[C@@H](C1CCCCC1)N1Cc2cc(Oc3ccccc3)ncc2N=C1N [Compound 108]	94	0.14	
CC(C)(C)N(CCO)C(=O)CC[C@@H](C1CCCCC1)N1Cc2cc(Oc3ccccc3)ncc2N=C1N [Compound 115]		0.23	80
NC1=Nc2cnc(Oc3ccccc3)cc2CN1[C@@H](CCC(=O)NCCN1CCOCC1)C1CCCCC1 [Compound 116]		0.63	54
CN(CCc1ccccc1)C(=O)CC[C@@H](C1CCCCC1)N1Cc2cc(Oc3ccccc3)ncc2N=C1N [Compound 122, 4-(2-Amino-6-phenoxy-4H-pyrido[3,4-d]pyrimidin-3-yl)-4-(S)-cyclohexyl-N-methyl-N-phenethyl-butyramide]			97
NC1=Nc2cnc(Oc3ccccc3)cc2CN1[C@@H](CN1CC2(CCCCC2)NC1=O)C1CCCCC1 [Compound 135, 3-[2-(2-Amino-6-phenoxy-4H-pyrido[3,4-d]pyrimidin-3-yl)-2-(R)-cyclohexyl-ethyl]-1,3-diaza-spiro[4.5]decan-2-one]		0.2	52
CC(C)OC(=O)[C@H](COC(C)(C)C)NC(=O)CC[C@@H](C1CCCCC1)N1Cc2cc(Oc3ccccc3)ncc2N=C1N [Compound 136]		0.19	98
CC(C)(C)CCN(Cc1ccncc1)C(=O)CC[C@@H](C1CCCCC1)N1Cc2cc(Oc3ccccc3)ncc2N=C1N [Compound 137]		0.17	101
C[C@H](CO)N(CCC(C)(C)C)C(=O)CC[C@@H](C1CCCCC1)N1Cc2cc(Oc3ccccc3)ncc2N=C1N [Compound 138]		0.31	8
C[C@@H](CO)N(CCC(C)(C)C)C(=O)CC[C@@H](C1CCCCC1)N1Cc2cc(Oc3ccccc3)ncc2N=C1N [Compound 139]		0.2	94
CC(C)OC(=O)[C@@H](COC(C)(C)C)NC(=O)CC[C@@H](C1CCCCC1)N1Cc2cc(Oc3ccccc3)ncc2N=C1N [Compound 140, 2-[4-(2-Amino-6-phenoxy-4H-pyrido[3,4-d]pyrimidin-3-yl)-4-cyclohexyl-butyrylamino]-3-tert-butoxy-propionic acid isopropyl ester]		0.15	98
NC1=Nc2cnc(Oc3ccccc3)cc2CN1[C@@H](CCC(=O)N(CCO)Cc1cccs1)C1CCCCC1 [Compound 141]		0.12	98
COCCN(CCOC)C(=O)CC[C@@H](C1CCCCC1)N1Cc2cc(Oc3ccccc3)ncc2N=C1N [Compound 142]		0.2	90

More lines, in order of falling IC50, values ahead:

inhibition at 0.3 µM [%]	IC50 [µM]	inhibition at 1 µM [%]	Compound
99	0.12		CC(C)[C@H](CCC(=O)N(CC(=O)O)C1CCCCC1)N1Cc2cc(Oc3ccccc3)ncc2N=C1N [Compound 86]
95	0.12		CC(CO)NC(=O)C(COC(C)(C)C)NC(=O)CCC(C1CCCCC1)N1Cc2cc(Oc3ccccc3)ncc2N=C1N (stereo not drawn) [Compound 109]
94	0.11		NC1=Nc2cnc(Oc3ccccc3)cc2CN1[C@@H](CCC(=O)N1CCCC[C@H]1CC(=O)O)C1CCCCC1 [Compound 93]
93	0.11		CC(C)(C)OC[C@@H](NC(=O)CC[C@@H](C1CCCCC1)N1Cc2cc(Oc3ccccc3)ncc2N=C1N)C(=O)N1CCCCC1 [Compound 100]
	0.11	100	CC(C)(C)OC[C@@H](NC(=O)CC[C@@H](C1CCCCC1)N1Cc2cc(Oc3ccccc3)ncc2N=C1N)C(N)=O [Compound 111]
100	0.1		NC1=Nc2cnc(Oc3ccccc3)cc2CN1[C@@H](CCC(=O)N(CC(=O)O)C1CCCCC1)C1CCCCC1 [Compound 84, {[4-(2-Amino-6-phenoxy-4H-pyrido[3,4-d]pyrimidin-3-yl)-4-(S)-cyclohexyl-butyryl]cyclohexyl-amino}-acetic acid]
98	0.1		CC(C)[C@H](CCC(=O)N[C@H](COC(C)(C)C)C(=O)O)N1Cc2cc(Oc3ccccc3)ncc2N=C1N [Compound 88]
84	0.096		COC(=O)[C@@H](COC(C)(C)C)NC(=O)CC[C@@H](C(C)C)N1Cc2cc(Oc3ccccc3)ncc2N=C1N [Compound 87]
	0.09	99	Cn1ccnc1CN(C(=O)CC[C@@H](C1CCCCC1)N1Cc2cc(Oc3ccccc3)ncc2N=C1N)C1CCCCC1 [Compound 83]
	0.062	90	Cc1nc([C@H](COC(C)(C)C)NC(=O)CC[C@@H](C2CCCCC2)N2Cc3cc(Oc4ccccc4)ncc3N=C2N)no1 [Compound 110]
